# From patent US20080113938A1, “ACCELERATOR FOR MINERAL ABSORPTION AND USE THEREOF” (KABUSHIKI KAISHA HAYASHIBARA SEIBUTSU KAGAKU KENKYUJO, priority 2003, published 2008)
# Marks after values point to notes of the source that are not given here.
# Tested on: absorption of calcium, magnesium, phosphorus and iron in alimentary canal
# Test: Mineral amounts and absorption percentages in alimentary canal contents and excrement of rats
# Type: in vivo, Wister rats
# Description: Forty of Wister rats weighing 110 to 120 g (five-weeks aged male, commercialized by Charles River Japan Inc., Yokohama, Japan) were bred with a feed containing ingredients (%) shown in Table 1 for one week in order to be familiarized. The familiarized rats were randomly divided into four groups with ten rats each. Each group was experimentally bred for eight weeks with either a feed without cyclic tetrasaccharide shown in Table 1 (hereinafter, it is called as “basic feed”), or another feed of basic feed supplemented with 1%, 2% or 5% on a dry solid basis, of cyclic tetrasaccharide in a crystalline anhydrous powder form with a purity of 99.5%, prepared in the following Example A-3. These basic feed and three kinds of feeds with cyclic tetrasaccharide were prepared to contain 44.75% of the total amount of cyclic tetrasaccharide and corn starch in each feed. From one week before the end of the breeding test, in order to determine the metabolism of calcium, magnesium, iron, sodium, potassium and phosphorus (hereinafter, may be called “minerals” in all), rats in the all groups were fed with the four types of feeds supplemented with 0.5% of chromium oxide as a non-absorbed marker for the minerals. The rats were bred at 25° C. in a manner of freely allowing to take feeds and water under a condition of 12 hours regular interval between of light and shade. After completion of experimental breeding, all rats were individually weighed to calculate the average of weight and further calculate the rate of increased weight for each group.
# Two days before the end of the breeding test, rats were placed into a gauge for measuring metabolism to collect their excrement in two days. The resulting excrement was subjected to the measurement of the contents of cyclic tetrasaccharide, each mineral, and chromium. After the breeding test, the rats were anatomized in an anesthetized condition to take out their alimentary canals including jejunum, intestinum ileum, appendix and colon/rectum. After the resulting alimentary canals were weighed, their contents were also weighed and subjected to the measurement of the amount of cyclic tetrasaccharide, minerals and chromium. The rats, which had been taken out their alimentary canals, were dislocated at their cervical vertebrae and taken out their femurs from right legs. The resulting femurs were subjected to the measurement of the amount of ashes, calcium, magnesium and phosphorus. The following(s) explain the methods of quantitative analysis of cyclic tetrasaccharide and the methods of measurement of minerals and chromium.
# Two grams of a feed was preciously weighed in a porcelain crucible, heated to carbonize, and heated at 600° C. to incinerate. After weighed, the resulting test samples were admixed with hydrochloric acid in a precious analysis grade (concentration of 20%, commercialized by Wako Pure Chemicals, Co., Ltd., Osaka, Japan) to give a final concentration of 1%. They were subjected to atomic absorption spectrometry (“Zeeman5100™”, commercialized by PerkinElmer); in the case of measurement of chromium, they were subjected to a flameless type one. In the case of measurement of phosphorus, they were subjected to usual molybdenum blue absorptiometry. On the other hand, 0.1 g of each of the contents of jejunum, intestinum ileum, appendix, colon/rectum, and excrement was subjected to wet-type incineration to prepare test samples similarly as in the above case of feed, and the test samples were quantified. The right femurs taken out from the anatomized rats were dried at 105° C. for 15 hours and measured as a dry weight. The resulting dried femurs were precisely weighed in a porcelain crucible, and incinerated similarly as in the case of the feed. The resultants were weighed and quantified for calcium, magnesium and phosphorus.
# [1] = feed supplemented with 1% cyclic tetrasaccharide
# [2] = feed supplemented with 2% cyclic tetrasaccharide
# [3] = feed supplemented with 5% cyclic tetrasaccharide
compound,measurement,setting,value
"OC[C@H]1O[C@@H]2OC[C@H]3O[C@H](O[C@@H]4[C@@H](O)[C@@H](OC[C@H]5O[C@H](O[C@H]([C@H]2O)[C@@H]1O)[C@H](O)[C@@H](O)[C@@H]5O)O[C@H](CO)[C@H]4O)[C@H](O)[C@@H](O)[C@@H]3O [cyclic tetrasaccharide, cyclo{>6)-α-D-glucopyranosyl-(1>3)-α-D-glucopyranosyl-(1>6)-α-D-glucopyranosyl-(1>3)-α-D-glucopyranosyl-(1>}]","absorption rates of calcium, magnesium, phosphorus and iron in intestinum ileum and lower alimentary canal","against basic feed, 1%, 2%, 5% feeds",significantly increased in a dose-dependent manner
same,"Absorption percentage of calcium, appendix",[1],(83) %
same,"Absorption percentage of calcium, colon/rectum",[1],(86) %
same,"Absorption percentage of calcium, excrement",[1],(88) %
same,"Absorption percentage of calcium, intestinum ileum",[1],(79) %
same,"Absorption percentage of iron, appendix",[1],(74) %
same,"Absorption percentage of iron, colon/rectum",[1],(80) %
same,"Absorption percentage of iron, excrement",[1],(85) %
same,"Absorption percentage of iron, intestinum ileum",[1],(67) %
same,"Absorption percentage of magnesium, appendix",[1],(84) %
same,"Absorption percentage of magnesium, colon/rectum",[1],(86) %
same,"Absorption percentage of magnesium, excrement",[1],(88) %
same,"Absorption percentage of magnesium, intestinum ileum",[1],(80) %
same,"Absorption percentage of phosphorus, appendix",[1],(88) %
same,"Absorption percentage of phosphorus, colon/rectum",[1],(92) %
same,"Absorption percentage of phosphorus, excrement",[1],(95) %
same,"Absorption percentage of phosphorus, intestinum ileum",[1],(84) %
same,"Amount of Phosphorus, content of appendix",[1],5.39 * mg/g
same,"Amount of Phosphorus, content of colon/rectum",[1],5.18 * mg/g
same,"Amount of Phosphorus, content of intestinum ileum",[1],3.45 * mg/g
same,"Amount of Phosphorus, excrement",[1],17.74 * mg/g
same,"Amount of calcium, content of appendix",[1],10.56 * mg/g
same,"Amount of calcium, content of colon/rectum",[1],9.83 * mg/g
same,"Amount of calcium, content of intestinum ileum",[1],6.02 * mg/g
same,"Amount of calcium, excrement",[1],54.29 * mg/g
same,"Amount of iron, content of appendix",[1],0.16 * mg/g
same,"Amount of iron, content of colon/rectum",[1],0.14 * mg/g
same,"Amount of iron, content of intestinum ileum",[1],0.10 * mg/g
same,"Amount of iron, excrement",[1],0.71 * mg/g
same,"Amount of magnesium, content of appendix",[1],2.24 * mg/g
same,"Amount of magnesium, content of colon/rectum",[1],2.17 * mg/g
same,"Amount of magnesium, content of intestinum ileum",[1],1.30 * mg/g
same,"Amount of magnesium, excrement",[1],12.06 * mg/g
same,"Absorption percentage of calcium, appendix",[2],(88) %
same,"Absorption percentage of calcium, colon/rectum",[2],(90) %
same,"Absorption percentage of calcium, excrement",[2],(92) %
same,"Absorption percentage of calcium, intestinum ileum",[2],(84) %
same,"Absorption percentage of iron, appendix",[2],(77) %
same,"Absorption percentage of iron, colon/rectum",[2],(83) %
same,"Absorption percentage of iron, excrement",[2],(88) %
same,"Absorption percentage of iron, intestinum ileum",[2],(67) %
same,"Absorption percentage of magnesium, appendix",[2],(86) %
same,"Absorption percentage of magnesium, colon/rectum",[2],(88) %
same,"Absorption percentage of magnesium, excrement",[2],(90) %
same,"Absorption percentage of magnesium, intestinum ileum",[2],(80) %
same,"Absorption percentage of phosphorus, appendix",[2],(92) %
same,"Absorption percentage of phosphorus, colon/rectum",[2],(94) %
same,"Absorption percentage of phosphorus, excrement",[2],(97) %
same,"Absorption percentage of phosphorus, intestinum ileum",[2],(87) %
same,"Amount of Phosphorus, content of appendix",[2],5.35 * mg/g
same,"Amount of Phosphorus, content of colon/rectum",[2],4.10 * mg/g
same,"Amount of Phosphorus, content of intestinum ileum",[2],4.17 * mg/g
same,"Amount of Phosphorus, excrement",[2],10.27 * mg/g
same,"Amount of calcium, content of appendix",[2],8.98 * mg/g
same,"Amount of calcium, content of colon/rectum",[2],7.45 * mg/g
same,"Amount of calcium, content of intestinum ileum",[2],5.61 * mg/g
same,"Amount of calcium, excrement",[2],28.62 * mg/g
same,"Amount of iron, content of appendix",[2],0.18 * mg/g
same,"Amount of iron, content of colon/rectum",[2],0.14 * mg/g
same,"Amount of iron, content of intestinum ileum",[2],0.12 * mg/g
same,"Amount of iron, excrement",[2],0.49 * mg/g
same,"Amount of magnesium, content of appendix",[2],2.40 * mg/g
same,"Amount of magnesium, content of colon/rectum",[2],2.09 * mg/g
same,"Amount of magnesium, content of intestinum ileum",[2],1.61 * mg/g
same,"Amount of magnesium, excrement",[2],9.21 * mg/g
same,"Absorption percentage of calcium, appendix",[3],(93) %
same,"Absorption percentage of calcium, colon/rectum",[3],(94) %
same,"Absorption percentage of calcium, excrement",[3],(94) %
same,"Absorption percentage of calcium, intestinum ileum",[3],(89) %
same,"Absorption percentage of iron, appendix",[3],(78) %
same,"Absorption percentage of iron, colon/rectum",[3],(84) %
same,"Absorption percentage of iron, excrement",[3],(89) %
same,"Absorption percentage of iron, intestinum ileum",[3],(69) %
same,"Absorption percentage of magnesium, appendix",[3],(88) %
same,"Absorption percentage of magnesium, colon/rectum",[3],(91) %
same,"Absorption percentage of magnesium, excrement",[3],(93) %
same,"Absorption percentage of magnesium, intestinum ileum",[3],(84) %
same,"Absorption percentage of phosphorus, appendix",[3],(93) %
same,"Absorption percentage of phosphorus, colon/rectum",[3],(94) %
same,"Absorption percentage of phosphorus, excrement",[3],(97) %
same,"Absorption percentage of phosphorus, intestinum ileum",[3],(87) %
same,"Amount of Phosphorus, content of appendix",[3],3.43 * mg/g
same,"Amount of Phosphorus, content of colon/rectum",[3],3.06 * mg/g
same,"Amount of Phosphorus, content of intestinum ileum",[3],2.84 * mg/g
same,"Amount of Phosphorus, excrement",[3],8.98 * mg/g
same,"Amount of calcium, content of appendix",[3],4.99 * mg/g
same,"Amount of calcium, content of colon/rectum",[3],5.00 * mg/g
same,"Amount of calcium, content of intestinum ileum",[3],3.48 * mg/g
same,"Amount of calcium, excrement",[3],26.47 * mg/g
same,"Amount of iron, content of appendix",[3],0.19 * mg/g
same,"Amount of iron, content of colon/rectum",[3],0.13 * mg/g
same,"Amount of iron, content of intestinum ileum",[3],0.10 * mg/g
same,"Amount of iron, excrement",[3],0.66 * mg/g
same,"Amount of magnesium, content of appendix",[3],2.03 * mg/g
same,"Amount of magnesium, content of colon/rectum",[3],1.55 * mg/g
same,"Amount of magnesium, content of intestinum ileum",[3],1.04 * mg/g
same,"Amount of magnesium, excrement",[3],8.37 * mg/g
